Where two headings read alike, the source gives them in different places.
How the values were obtained:
[1] = test system: MCF-7 cancer cells; assay: Sulforhodamine B (SRB) growth inhibition assay; type: cell-based; conditions: Homo sapiens, MCF7, 24 h treatment, mean of triplicate, SD <10%
Procedure: (§1) Various compounds were tested to evaluate the dose response curve for effect on MCF-7 cancer cells and MDA-MB-231 cancer cells. MCF-7 and MDA-MB-231 cells were cultured in 10% Minimum Essential Medium Eagle (MEME) supplemented with Earle's Balanced Salt Solution (EBSS), Non-essential Amino acids (NEAA), Sodium pyruvate, Pen/Strep, L-glutamine and Fetal Bovine Serum (FBS) at 37° C. in 5% CO2.
(§2) Sulforhodamine B (SRB) Assay: A stock solution of compounds was prepared at 50 mM in 100% DMSO. For cells preparation, a flask of 75 cm^2 or 25 cm^2 were used for 2.6×10^5 cells or 1.44×10^5 cells respectively with an 80-90% of confluence. Cells were washed with PBS and trypsinized. The concentration of cells was determined using a 1:2 dilutions with Trypan Blue and a hemocytometer. After cell count, the concentration was adjusted to have a 1.9×10^4 cells/well. Approximately […] of cells suspension, compounds, control positive and control negative were added in triplicates to a 96 well plate. Positive controls used were ellipticine, doxorubicin, and/or vincristine, and the negative control was DMSO 0.1%. All compounds at 50, 25, 12.5, 6.3, and 1.6 μM were incubated with cells at 37° C. for 24 hrs. For fixation, cold TCA 50% was used and incubated at 4° C. for 1 hr. Wells were washed and dried prior to tincture with 100 μL of SRB 0.4%. To remove excess of SRB, acetic acid was used. For analysis, TRIS-BASE Solution (pH=10.5) was used and shacked prior to reading using an ELISA reader at 510 nm and the software SoftMax Pro 4.8.
(§3) For each compound, 50% growth inhibition (GI50) was calculated from Sigmoidal dose-response curves (variable-slope) that were generated with data obtained from experiments carried out in triplicates (GI50 values were generated with GraphPad Prism V. 6.02, GraphPad Software, Inc.). The results are presented in FIGS. 4A-4B (MCF-7 cancer cells) and FIGS. 5A-5B (MDA-MB-231 cancer cells).

[2] = test system: MDA-MB-231 cancer cells; assay: Sulforhodamine B (SRB) growth inhibition assay; type: cell-based, human; conditions: for GI50: Homo sapiens, MDA-MB-231, SRB assay, 24 h treatment, mean of triplicate, SD <10%; for anti-proliferative activity / cytotoxicity in words: MDA-MB-231, concentrations ≤50 μM
Procedure: as §1, §2, §3

[3] = test system: MDA-MB-231 breast cancer cells; assay: Wound healing assay (scratch method), cell migration; type: cell-based, human; conditions: Homo sapiens, MDA-MB-231; for inhibition at 10 µM: read-out: anti-migratory activity (inhibition of migration); for activity at 10 µM: percent relative migration at 10 μM after 24 h, relative to control
Procedure: The experimental data of anti-migratory activities for compounds 3a-d and 4a-f were obtained using MDA-MB-231 breast cancer cells. For the migration assay, a wound-healing assay (scratch-wound assay) was utilized in the presence of vehicle (0.02% DMSO) or compounds at […].
Prior to assays, cells were grown until 80-90% confluence was observed. A 75 cm2 flask was used for 2.6×10^5 cells/mL in 10 mL and for a 25 cm2 flask 1.44×10^5 cells/mL in 5 mL. The cells were washed with PBS to remove all traces of FBS. 2 mL was added for a 25 cm2 flasks or 4 mL for a 75 cm2 flasks trypsin, and incubated 5-10 min at 37° C. At the end of the incubation time, cells were re-suspended and counted with hemocytometer using 1:2 dilutions with Trypan blue. Subsequently, cell viability was calculated. In a 12 multiwell plate, the plastic pattern was used to draw a fine space with a fine marker on the bottom of the plate. Cells were seeded at 1.5-2.2×10^5 cells/mL in 1 mL and incubated for 24 h. Cells were then rinsed with PBS and incubated in starving media (0.5% FBS) overnight. All controls and drugs were tested in triplicate. The negative control for each drug was prepared according to the drug's DMSO concentration.
Drugs were diluted and the final concentration at each well […]. The wound was made using a sterile pipette tip of […]. Cells were then rinsed very gently with media without FBS and media with negative controls was added. After a 24 h incubation, the gap distance was evaluated using the software Lumera Infinity Analyze 6.4.0. Pictures were taken at 0, 8, 12 and 24 h using a 10× objective. The percentage of migration was calculated using the following formula: 100−[(X0/X0)]*100 for time 0 h measurements 100−[(X24/X0)]*100 for time 24 h measurements
The experimental data of anti-migratory activities for compounds 3a-d and 4a-f were obtained using MDA-MB-231 breast cancer cells, and results are summarized in Table 1. For the migration assay, we used a wound-healing assay (scratch-wound assay)^22 in the presence of vehicle (0.02% DMSO) or compounds at 10 μM (FIG. 6). […] However, compounds 3a, 3c, and 4a-f inhibited migration in the range of 1-9%.
An additional example of a compounds with modification in building block C was synthesized via a different procedure as represented in Scheme 2B (see FIG. 11B). The compounds that were synthesized were tested for their biological activity by determination of their cytotoxicity in MDA-MB-231 breast cancer cell lines as shown in Table 5. The cytotoxicity's are expressed as IC50, which indicates the concentration at which 50% of the cell growth is inhibited. Furthermore, the inhibition of cell migration was tested at a concentration of 0.2×IC50, or, when the IC50 was >50 μM at a concentration of 10 μM. For comparison, Table 5 also includes the Lipinski and drug-likeness parameters as calculated via the MolSoft platform.
Migration assays were performed via the Scratch Method as described previously.

Structure (SMILES)	GI50 [1] [µM]	GI50 [2] [µM]	inhibition at 10 µM [3] [%]	inhibition at 10 µM ([3]; at 10 μM, 24 h) [%]	activity at 10 µM [3] [%]	anti-proliferative activity / cytotoxicity in words [2]	anti-proliferative activity in words ([2]; MDA-MB-231 at <50 pM as printed)
CCn1c2ccccc2c2cc(NC(=O)c3cccnc3NCCCN3CCOCC3)ccc21 [Compound 3d]	> 50	19	24	24	76 ± 7.87	–	–
CCn1c2ccccc2c2cc(Nc3ncccc3C(=O)NCCN3CCN(C(=O)OC(C)(C)C)CC3)ccc21 [Compound 4b]	> 50	> 50	–	–	95 ± 9.8	–	–
CCn1c2ccccc2c2cc(NC(=O)c3cccnc3N3CCOCC3)ccc21 [Compound 3b, N-(9-ethyl-9H-carbazol-3-yl)-2-morpholinonicotinamide]	> 50	> 50	32	32	68 ± 10.5	no anti-proliferative activity	minor anti-proliferative activity
CCn1c2ccccc2c2cc(NC(=O)C3CCCCC3C(=O)NCCN3CCOCC3)ccc21 (stereo not shown) [Compound 14g]	> 50	> 50	–	–	99 ± 1.63	–	–
CCn1c2ccccc2c2cc(Nc3ncccc3NC(=O)c3cccnc3)ccc21 [Compound 7b, N-(2-((9-ethyl-9H-carbazol-3-yl)amino)pyridin-3-yl)nicotinamide]	41	31	–	–	81 ± 11.1	–	–
CCn1c2ccccc2c2cc(Nc3ncccc3C(=O)NCCCN3CCOCC3)ccc21 [Compound 4a, 2-(9-ethyl-9H-carbazol-3-ylamino)-N-(3-norpholinopropyl)nicotinamide]	28	> 50	–	–	99 ± 1.28	–	–
CCn1c2ccccc2c2cc(NC(=O)c3cccnc3N3CCN(C(C)=O)CC3)ccc21 [Compound 3a, 2-(4-acetylpiperazin-1-yl)-N-(9-ethyl-9H-carbazol-3-yl)nicotinamide]	> 50	> 50	–	–	93 ± 11.7	–	–
CCn1c2ccccc2c2cc(Nc3ncccc3NCC(=O)N3CCOCC3)ccc21 [Compound 7c]	23	> 50	–	–	81 ± 8.27	minimal cytotoxicity	–
CCN(CC)CCNC(=O)c1cccnc1Nc1ccc2c(c1)c1ccccc1n2CC [Compound 4e, N-(2-(diethylamino)ethyl)-2-((9-ethyl-9H-carbazol-3-yl)amino)nicotinamide]	14	18	–	–	99 ± 4.12	–	–
CCn1c2ccccc2c2cc(NC(=O)c3nccnc3C(=O)NCCCN3CCOCC3)ccc21 [Compound 14b, N^2-(9-ethyl-9H-carbazol-3-yl)-N^3-(3-morpholinopropyl)pyrazine-2,3-dicarboxamide]	> 50	> 50	–	–	94 ± 5.87	–	–
CCn1c2ccccc2c2cc(NC(=O)c3nccnc3C(=O)NCCN3CCOCC3)ccc21 [Compound 14a, N^2-(9-ethyl-9H-carbazol-3-yl)-N^3-(2morpholinoethyl)pyrazine-2,3-dicarboxamide]	> 50	> 50	–	–	91 ± 5.23	–	–

Source: patent US11446299B2, “Carbazole EHop-016 derivatives as anticancer and anti-migratory agents” (UNIVERSITY OF PUERTO RICO, priority 2017, dated 2022)
